Test system: PAK
Experiment: PAK activity in CHO-AT1a cells
Assay type: cell-based, Chinese hamster
Conditions: AII 10^−7M, 30 minutes
Description: Cell lysis and PAK activity measurement were performed as described in Science, 269:221-223 (1995). Cells were lysed on ice in 50 mM Tris-HCl, 150 mM NaCl, 5 mM EGTA, 50 mM NaF, 10 mM Na pyrophosphate, 1% NP-40, 2.5% glycerol, and 1 mM Na3VO4 (pH 7.5), containing protease inhibitors PMSF, leupeptin and aprotinin. Cell were centrifuged for 10 minutes at 1000 g. For immunoprecipitation, the supernatants were incubated with anti-PAK1 or anti-PAK2 antibody (1:25) (Dept. Immuno. & Cell Biology, Scripps Res. Instit., La Jolla, Calif.) for 2 hours at 4° C. followed by incubation with 60 μl of 1:1 protein A beads for 60 minutes, then 5×1.0 ml lysis buffer washes and 2 washes with kinase buffer (50 mM HEPES, pH 7.5, 10 mM MgCl2 0.2 mM dithiothreitol, 2 μg myelin basic protein and 14 Mμ [r-^32P] ATP) for 20 minutes at 30° C. The reaction was stopped with SDS sample buffer, and results were visualized by SDS-PAGE and autoradiography.
It has been discovered that the administration of AII results in biphasic activation of MAP kinase (all of the MAP kinase experiments were conducted in CHO-AT1a cells—AII receptor AT1a cDNA transfected Chinese hamster ovary cells).

Angiotensin II (DRVYIHPF; Angiotensin-2; UniProt P01019 25-32, looked up) [AII, peptide hormone, added to cells as stimulus]
stimulation of PAK, major peak: 5 fold

From US6893829B2, “Human leukocyte 12-lipoxygenase and its role in the pathogenesis of disease states” (City of Hope, priority 1992, dated 2005)
